# Measured values published in ChEMBL document CHEMBL2424611, “Identification of potent, selective, CNS-targeted inverse agonists of the ghrelin receptor” (Bioorg Med Chem Lett, 2013).
# Tests used:
# [1] = target: T1, Muscarinic acetylcholine receptor M2 (Homo sapiens, UniProt P08172); assay: Displacement of N-methyl [3H]-scopolamine from recombinant human muscarinic acetylcholine receptor M2 expressed in CHO cells after 2 hrs by liquid scintillation counting; type: cell-based; conditions: for pKi: cho
# T1 sequence (P08172 whole entry): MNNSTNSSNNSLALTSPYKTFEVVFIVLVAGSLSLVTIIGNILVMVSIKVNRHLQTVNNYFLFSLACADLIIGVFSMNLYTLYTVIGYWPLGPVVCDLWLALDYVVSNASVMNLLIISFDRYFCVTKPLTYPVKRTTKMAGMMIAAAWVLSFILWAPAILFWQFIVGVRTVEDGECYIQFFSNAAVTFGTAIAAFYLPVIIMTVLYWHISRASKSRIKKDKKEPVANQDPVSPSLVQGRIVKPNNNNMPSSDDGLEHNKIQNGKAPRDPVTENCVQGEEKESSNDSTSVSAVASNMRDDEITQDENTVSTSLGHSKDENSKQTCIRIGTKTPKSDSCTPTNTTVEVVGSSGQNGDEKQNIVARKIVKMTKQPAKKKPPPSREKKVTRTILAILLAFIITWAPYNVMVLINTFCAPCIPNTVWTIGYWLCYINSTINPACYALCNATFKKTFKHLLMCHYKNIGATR
# [2] = target: T2, Growth hormone secretagogue receptor type 1 (Homo sapiens, UniProt Q92847); assay: Displacement of [125I]-ghrelin from human GHS-R1a expressed in tetracycline inducible HEK293 cells after 8 hrs by liquid scintillation counting; type: cell-based; conditions: for pKi: hek293
# T2 sequence (Q92847 whole entry): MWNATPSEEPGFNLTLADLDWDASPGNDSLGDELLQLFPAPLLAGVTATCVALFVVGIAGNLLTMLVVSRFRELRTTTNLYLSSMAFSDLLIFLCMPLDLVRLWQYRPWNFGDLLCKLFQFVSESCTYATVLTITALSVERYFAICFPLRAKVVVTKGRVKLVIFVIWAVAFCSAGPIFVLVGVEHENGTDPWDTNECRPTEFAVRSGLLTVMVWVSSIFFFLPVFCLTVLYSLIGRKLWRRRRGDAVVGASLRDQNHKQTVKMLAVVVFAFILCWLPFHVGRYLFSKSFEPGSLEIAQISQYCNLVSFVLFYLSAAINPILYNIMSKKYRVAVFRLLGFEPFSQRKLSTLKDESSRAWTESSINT
# [3] = system: Rattus norvegicus; assay: Ex vivo receptor occupancy of GHS-R1a in Sprague-Dawley rat hypothalamus at 10 mg/kg, po measured at 1 hr by liquid scintillation counting in presence of [His [125I]]-Ghrelin; type: functional
# [4] = target: T2, Growth hormone secretagogue receptor type 1; assay: Inverse agonist activity at human GHS-R1a expressed in tetracycline inducible HEK293 cells incubated for 24 hrs prior to europium-labeled GTP addition measured after 90 mins by DELFIA assay; type: cell-based; design: Activity: concentration or dose not given beside the values
# [5] = target: T1, Muscarinic acetylcholine receptor M2; assay: Binding affinity to muscarinic acetylcholine receptor M2 (unknown origin)
# [6] = Apparent intrinsic clearance in human liver microsomes; type: ADME, Microsome; conditions: read-out: CLH(app)
# [7] = system: human MDR1 (P-gp); assay: Efflux ratio of permeability in MDCK cells expressing human MDR-1 gene; type: ADME, cell-based, Canis lupus familiaris; conditions: dog
Ki [1] [nM],Ki [2] [nM],Activity [4] [%],pKb [4],SMILES,Occ [3] [%],also measured
14500,29.5,42,7.6,COc1ccc(CC(=O)N2CCC3(CC2)CN([C@@H]2CCc4cc(-c5ncccn5)ccc42)C3)nc1,45,
,,23,7.38,CCc1ccc(CC(=O)N2CCC3(CC2)CN([C@@H]2CCc4cc(-n5nccn5)ccc42)C3)nc1,74,pKi [1]: < 4.59
1950,,,,COc1ccc(CC(=O)N2CCC3(CC2)CN(Cc2ccc(-c4ncccn4)cc2Cl)C3)cc1,,IC50 [2]: 15.8 nM
,,40,7.07,COc1ccc(CC(=O)N2CCC3(CC2)CN([C@@H]2CCc4cc(-c5ncc(C)cn5)ccc42)C3)nc1,5,pKi [1]: < 4.17
,7.41,21,8.27,COc1ccc(CC(=O)N2CCC3(CC2)CN([C@@H]2CCc4cc(-n5nccn5)ccc42)C3)cc1,74,pKi [1]: < 4.26
,,42,7.57,COc1ccc(CC(=O)N2CCC3(CC2)CN([C@@H]2CCc4cc(-n5nccn5)ccc42)C3)nc1,50,pKi [1]: < 4.42
21900,,40,7.23,Cc1ccc(CC(=O)N2CCC3(CC2)CN([C@@H]2CCc4cc(-n5nccn5)ccc42)C3)nc1,23,
7080,3630,,,COCC(c1ccc(-c2ncccn2)cc1)N1CC2(CCN(C(=O)Cc3ccc(OC)cn3)CC2)C1 (configuration not stated),,
2240,1120,,,COc1ccc(CC(=O)N2CCC3(CC2)CN([C@@H](C)c2ccc(-c4ncccn4)cc2)C3)nc1,,
,3.98,39,7.4,COc1ccc(CC(=O)N2CCC3(CC2)CN([C@@H]2CCc4cc(-c5nccs5)ccc42)C3)nc1,35,pKi [1]: < 4.25
28200,15.5,22,7.13,CCc1ccc(CC(=O)N2CCC3(CC2)CN([C@@H]2CCc4cc(-c5ncccn5)ccc42)C3)nc1,10,
,,21,6.98,Cc1ccc(CC(=O)N2CCC3(CC2)CN([C@@H]2CCc4cc(-c5ncccn5)ccc42)C3)nc1,0.2,microsomal CLint [6]: 22 µL/min/mg; efflux ratio [7]: 2; pKi [1]: < 4.56

# The next lines start with the compound.
SMILES,Ki [1] [nM],Ki [2] [nM],Activity [4] [%],pKb [4],Occ [3] [%],also measured
COc1ccc(CC(=O)N2CCC3(CC2)CN([C@H](C)c2ccc(-c4ncccn4)cc2)C3)nc1,20000,25100,,,,
COc1ccc(CC(=O)N2CCC3(CC2)CN(C(c2ccc(-c4ncccn4)cc2)C(C)C)C3)nc1 (configuration not stated),151,,,,,pKi [2]: < 4.52
COc1ccc(CC(=O)N2CCC3(CC2)CN(C(C)c2ccc(-c4ncccn4)cc2)C3)nc1 (configuration not stated),2400,1700,,,,
COc1ccc(CC(=O)N2CCC3(CC2)CN(C2CCc4cc(-c5nccs5)ccc42)C3)nc1 (configuration not stated),871,,,,,IC50 [2]: 30.2 nM
CCc1cnc(-c2ccc3c(c2)CC[C@H]3N2CC3(CCN(C(=O)Cc4ccc(OC)cn4)CC3)C2)nc1,,,29,7.37,64,pKi [1]: < 4.17
COc1ccc(CC(=O)N2CCC3(CC2)CN([C@H]2CCc4cc(-c5nccs5)ccc42)C3)nc1,1550,1380,,,,
COc1ccc(CC(=O)N2CCC3(CC2)CN(C2CCc4cc(-c5ncccn5)ccc42)C3)nc1 (racemic),1620,,,,,IC50 [2]: 37.2 nM
COc1ccc(CC(=O)N2CCC3(CC2)CN([C@@H](c2ccc(-c4ncccn4)cc2)C(C)C)C3)nc1,47.9,,,,,pKi [2]: < 4.53
COc1ccc(CC(=O)N2CCC3(CC2)CN([C@H](c2ccc(-c4ncccn4)cc2)C(C)C)C3)nc1,912,,,,,pKi [2]: < 4.68
Cc1cn2cc(CC(=O)N3CCC4(CC3)CN(Cc3ccc(-n5nccn5)cc3Cl)C4)nc2s1,,,,,,Ki [5]: 269 nM
COc1ccc(CC(=O)N2CCC3(CC2)CN([C@@H]2CCc4cc(-c5ncccn5)ccc42)C3)cc1,,,,,85,
COc1ccc(CC(=O)N2CCC3(CC2)CN([C@H]2CCc4cc(-c5ncccn5)ccc42)C3)nc1,407,,,,,IC50 [2]: 1100 nM
